Data on five compounds can be found in ChEMBL document CHEMBL4837244 (ACS Med Chem Lett, 2021).

Bounds are passed on as bounds.

What all share (format): ADME, Microsome
The nature of data set [1]: Metabolic stability in rat liver microsomes assessed as parent compound remaining at 0.1 uM in presence of NADPH by LC-MS/MS analysis. The following applies: read-out: Stabilty.
A short description of data set [2]: Metabolic stability in human liver microsomes assessed as parent compound remaining at 0.1 uM in presence of NADPH by LC-MS/MS analysis. In general terms: Liver microsomes are a subcellular fraction often used to study metabolism.
The nature of data set [3]: Metabolic stability in mouse liver microsomes assessed as parent compound remaining at 0.1 uM in presence of NADPH by LC-MS/MS analysis. As to conditions: read-out: Stabilty.

Take `CCOC(=O)c1ccc(CCN2CCC(Nc3nc4ccccc4n3Cc3ccc(C#N)cc3)CC2)cc1`: the remaining at 0.1 µM in data set [1] and in data set [3] was under 45% each time. The Stabilty entry in data set [2] is on record as “Unstable”.

Take `O=C(c1ccc(CCN2CCC(Nc3nc4ccccc4n3Cc3ccc(F)cc3)CC2)cc1)N1CCNCC1`: the remaining at 0.1 µM in data set [1] and in data set [3] was under 45% each time. Moreover, in data set [2], the Stabilty result was “Unstable”.

`N#Cc1ccc(CCN2CCC(Nc3nc4ccccc4n3Cc3ccc(C#N)c(F)c3)CC2)cc1`: the remaining at 0.1 µM in data set [1] and in data set [3] was under 45% throughout. In addition, in data set [2], the Stabilty entry is reported as “Unstable”.

Turning to `N#Cc1ccc(CCN2CCC(Nc3nc4ccccc4n3Cc3ccc(C(F)(F)F)nc3)CC2)cc1`, the remaining at 0.1 µM in data set [1] and in data set [3] was under 45% each time. The Stabilty result in data set [2] is recorded as “Unstable”.

Turning to `N#Cc1ccc(Cn2c(NC3CCN(CCc4ccc(C(F)(F)F)cc4)CC3)nc3ccccc32)cc1`, the remaining at 0.1 µM in data set [1] and in data set [3] was under 45% in each case. The Stabilty result in data set [2] is reported as “Unstable”.
